Laboratory results reported in US11827628B2, “Compositions and methods for inhibition of the JAK pathway” (Rigel Pharmaceuticals, Inc., priority 2005, dated 2023).
pIC50: −log10 of the molar value. Where a name gives a salt, the structure may show the parent alone. Read-outs that look alike come from different tables or passages of the source.

Key:
[1] = system: IL-4 stimulated expression of CD23 in human Ramos B cells (JAK-1 and JAK-3); test: Assay for Ramos B-Cell Line Stimulated with IL-4 (CD23 upregulation, FACS); type: cell-based; settings: Ramos B cells stimulated with IL-4, CD23 expression by FACS, read-out: IC50, Example 41
How it was run: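 Read-out is surface CD23 by FACS after anti-CD23-PE staining, giving IC50. Before this, cells were stimulated 20-24 h with 50 units/mL (final) human IL-4, following 1 h compound or vehicle pre-treatment at 37 °C; log-phase Ramos B cells, 5×10^4 per well in 5% serum RPMI.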

Primary human T-cells = test: Primary Human T-Cell Proliferation Assay Stimulated with IL-2 (CellTiter-Glo); type: cell-based; settings: primary human T-cells stimulated with IL-2, proliferation, read-out: IC50, Example 42
How it was run: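 Peripheral blood T-cells pre-activated with anti-CD3/anti-CD28 and IL-2 were washed free of IL-2, then cultured with compound plus IL-2 for 72 hours at 37° C, duplicate wells. Viability read as ATP by CellTiter-Glo luminescence; IC50 reported.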

| Compound | pIC50 [1] | pIC50 (Primary human T-cells) | pIC50 ([1]; Homo sapiens, Ramos) | pIC50 (Primary human T-cells; Homo sapiens, T-cell) |
| --- | --- | --- | --- | --- |
| NS(=O)(=O)c1cccc(Nc2ncc(F)c(Nc3ccc(Cc4ccncc4)cc3)n2)c1 [III-129, N2-(3-Aminosulfonylphenyl)-5-fluoro-N4-[4-(4-pyridylmethyl)phenyl]-2,4-pyrimidinediamine Methanesulfonic Acid Salt] | 6.76 | 6.74 | – | – |
| CNS(=O)(=O)c1cc(Nc2ncc(F)c(Nc3cccc(-c4cnco4)c3)n2)ccc1C [IV-4, 5-Fluoro-N2-[3-(N-methylaminosulfony)-4-methylphenyl]-N4-[3-(1,3-oxazol-5-yl)phenyl]-2,4-pyrimidinediamine] | 6.82 | 6.52 | – | – |
| CNS(=O)(=O)c1cc(Nc2ncc(F)c(Nc3ccc(-c4cnco4)cc3)n2)ccc1C [IV-7, 5-Fluoro-N2-[3-(N-methylaminosulfony)-4-methylphenyl]-N4-[4-(1,3-oxazol-5-yl)phenyl]-2,4-pyrimidinediamine] | 6.95 | 6.69 | – | – |
| Cc1cc(Nc2nc(Nc3ccc(S(N)(=O)=O)cc3)ncc2F)cc(C)c1N1CCN(C)CC1 [IX-44, N2-(4-Aminosulfonylphenyl)-N4-[3,5-dimethyl-4-(4-methylpiperazin-1-yl]phenyl)-5-fluoro-2,4-pyrimidinediamine] | – | – | 6.65 | 6.10 |
| COC(=O)c1ccc(Nc2nc(Nc3ccc(F)c(S(N)(=O)=O)c3)ncc2F)s1 [IX-48, N2-(3-Aminosulfonyl-4-fluorophenyl)-5-fluoro-N4-(5-methoxycarbonyl-thiophene-2-yl)-2,4-pyrimidinediamine] | – | – | 6.59 | 5.58 |
| COc1ccc(Nc2nc(Nc3cccc(S(=O)(=O)NN4CCC(C)CC4)c3)ncc2F)cc1Cl [VI-9, N4-(3-Chloro-4-methoxyphenyl)-5-fluoro-N2-[3-(4-methylpipendin-1-yl)aminosulfonylphenyl]-2,4-pyrimidinediamine] | 7.27 | 6.02 | – | – |
| N4-(3,4-Dichlorophenyl)-5-fluoro-N2-[3-(4-methylpipendin-1-yl)aminosulfonylphenyl]-2,4-pyrimidinediamine [VI-10] | 6.66 | 5.62 | – | – |
